Experimental findings from patent publication US9790201B2, “Piperidine and azepine derivatives as prokineticin receptor modulators” (TAKEDA PHARMACEUTICAL COMPANY LIMITED, priority 2013, dated 2017) are described below.

Structures are written as SMILES.

Chain of human PKR1 receptors (Q8TCW9 whole entry): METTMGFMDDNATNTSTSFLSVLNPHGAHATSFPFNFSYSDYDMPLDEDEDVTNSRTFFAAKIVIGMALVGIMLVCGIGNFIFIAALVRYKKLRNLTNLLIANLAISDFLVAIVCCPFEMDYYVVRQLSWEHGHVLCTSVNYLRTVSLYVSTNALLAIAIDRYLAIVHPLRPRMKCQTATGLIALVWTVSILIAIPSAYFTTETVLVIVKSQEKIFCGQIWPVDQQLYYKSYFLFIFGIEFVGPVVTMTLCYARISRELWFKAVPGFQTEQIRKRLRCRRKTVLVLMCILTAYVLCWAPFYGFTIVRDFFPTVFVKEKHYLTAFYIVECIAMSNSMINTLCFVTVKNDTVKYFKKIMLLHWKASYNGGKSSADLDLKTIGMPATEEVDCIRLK

The target in the experiment is human PKR1 receptors (Homo sapiens (Human), UniProt Q8TCW9). Nature of the experiment: PKR1 antagonist assay: block of PK1-mediated intracellular calcium release (FLIPR Tetra). The conditions noted are these: RBL2H3 cells expressing human PKR1; stimulation with PK1 at EC80; calcium fluorescence. It counts as cell-based. The protocol:
Prokineticin receptor 1 (PKR1) antagonists may be functionally assessed by measurement of change in intracellular calcium levels induced by Gq mediated increase in inositol triphosphate (IP3) levels. The ability of a compound to block the intracellular release of calcium mediated by PK1 in RBL2H3 cells expressing human PKR1 receptors is determined as a measure of the compound's antagonist activity in vitro.
Approximately 10,000 cells per assay well are seeded in normal culture medium in a 384 well plate (Corning). Twenty-four hours after seeding, the cells are loaded with a calcium sensitive fluorescent dye by replacing the culture medium with assay buffer (1× Hanks buffered saline, 25 mM HEPES, 0.1% w/v fatty acid free BSA (bovine serum albumin), pH 7.4) containing 1 mM probenecid and 1× Calcium 5 Reagent (Molecular Devices). Cells are incubated at 37° C. for 1 hour to allow for dye uptake.
To test for antagonist activity, test compounds at a final concentration range between 0.32 nM-10 μM (diluted in assay buffer) are added to the assay wells and allowed to incubate for 10 minutes prior to stimulation with PK1. After incubation with test compounds the assay plate is placed in a FLIPR Tetra (Molecular Devices) and PK1 (diluted in assay buffer) is added at the determined EC80 concentration (final). Ligand-dependent changes in intracellular calcium levels are determined by measuring changes in fluorescence of the dye at […] following excitation at 485 nm.
A word on the IC50: it is the concentration needed to halve the response being measured. For the compound `Cc1ccc(C2CCCN(C(=O)c3ccnc(N(C)C)c3)C2)cc1` (single isomer, unassigned) [Example 50, N,N-Dimethyl-4-{[3-(4-methylphenyl)piperidin-1-yl]carbonyl}pyridin-2-amine], the 50% inhibitory concentration (IC50) was 990 nM.
For the compound `Cc1ccc(C2CCCN(C(=O)c3ccnc(N(C)C)c3)C2)cc1` (single isomer, unassigned) [Example 51, N,N-Dimethyl-4-{[3-(4-methylphenyl)piperidin-1-yl]carbonyl}pyridin-2-amine], the IC50 stood at 310 nM.
For `CNc1cc(C(=O)N2CCC[C@@H](c3ccc(Cl)cc3C)C2)cnn1` (single isomer, unassigned) [Example 73], the concentration for half-maximal inhibition (IC50) came to 1180 nM.
For the compound `Cn1cc(C(=O)N2CCCC(c3ccc(Cl)cc3C(F)(F)F)C2)c(N)n1` (single isomer, unassigned) [Example 118, 4-({3-[4-Chloro-2-(trifluoromethyl)phenyl]piperidin-1-yl}carbonyl)-1-methyl-1H-pyrazol-3-amine], the half-inhibitory concentration (IC50) was greater than 10000 nM.
As to `Cn1cc(C(=O)N2CCCC(c3ccc(Cl)cc3C(F)(F)F)C2)c(N)n1` (single isomer, unassigned) [Example 119, 4-({3-[4-Chloro-2-(trifluoromethyl)phenyl]piperidin-1-yl}carbonyl)-1-methyl-1H-pyrazol-3-amine], the IC50 is 330 nM.
With `CN(C)c1cc(C(=O)N2CCCC(c3ccccc3F)C2)ccn1` (stereo not drawn) [Example 1, 4-{[3-(2-Fluorophenyl)piperidin-1-yl]carbonyl}-N,N-dimethylpyridin-2-amine] the figure was 1820 nM; with `CN(C)c1cc(C(=O)N2CCCC(c3ccc(Cl)cc3Cl)C2)ccn1` (stereo not drawn) [Example 2, 4-{[3-(2,4-Dichlorophenyl)piperidin-1-yl]carbonyl}-N,N-dimethylpyridin-2-amine], 190 nM; with `O=C(c1ccnc(C2CC2)c1)N1CCCC(c2ccc(Cl)cc2)C1` (stereo not drawn) [Example 3, 4-{[3-(4-Chlorophenyl)piperidin-1-yl]carbonyl}-2-cyclopropylpyridine], 1740 nM.
The same measure for `CCc1cc(C(=O)N2CCCC(c3ccc(Cl)cc3C)C2)ccn1` (stereo not drawn) [Example 4, 4-{[3-(4-Chloro-2-methylphenyl)piperidin-1-yl]carbonyl}-2-ethylpyridine]: 70 nM; for `Cc1cc(C(=O)N2CCCC(c3ccc(Cl)cc3C)C2)ccn1` (stereo not drawn) [Example 5, 4-{[3-(4-Chloro-2-methylphenyl)piperidin-1-yl]carbonyl}-2-methylpyridine]: 450 nM; for `CCc1cc(C(=O)N2CCCC(c3ccc(Cl)cc3C(F)(F)F)C2)ccn1` (stereo not drawn) [Example 6, 4-({3-[4-Chloro-2-(trifluoromethyl)phenyl]piperidin-1-yl}carbonyl)-2-ethylpyridine]: 280 nM.
Consider `CN(C)c1cc(C(=O)N2CCCC(c3ccc(Cl)cc3C(F)(F)F)C2)ccn1` (stereo not drawn) [Example 7, 4-({3-[4-Chloro-2-(trifluoromethyl)phenyl]piperidin-1-yl}carbonyl)-N,N-dimethylpyridin-2-amine], for which the concentration for half-maximal inhibition (IC50) worked out at 100 nM.
Take `CC(C)Nc1cc(C(=O)N2CCCC(c3ccc(Cl)cc3)C2)ccn1` (stereo not drawn) [Example 8, 4-{[3-(4-Chlorophenyl)piperidin-1-yl]carbonyl}-N-(propan-2-yl)pyridin-2-amine]: the IC50 is 3270 nM.
`COc1cc(C(=O)N2CCCC(c3ccc(Cl)cc3C(F)(F)F)C2)ccn1` (stereo not drawn) [Example 9, 4-({3-[4-Chloro-2-(trifluoromethyl)phenyl]piperidin-1-yl}carbonyl)-2-methoxypyridine]: the IC50 was 1370 nM.
With `Cc1cc(C(=O)N2CCCC(c3ccc(Cl)cc3C(F)(F)F)C2)ccn1` (stereo not drawn) [Example 10, 4-({3-[4-Chloro-2-(trifluoromethyl)phenyl]piperidin-1-yl}carbonyl)-2-methylpyridine] the figure was 1170 nM; with `CNc1cc(C(=O)N2CCCC(c3ccc(C)cc3)C2)ccn1` (stereo not drawn) [Example 11, N-Methyl-4-{[3-(4-methylphenyl)piperidin-1-yl]carbonyl}pyridin-2-amine], 290 nM; with `Cc1ccc(C2CCCN(C(=O)c3ccnc(C)c3)C2)cc1` (stereo not drawn) [Example 12, 2-Methyl-4-{[3-(4-methylphenyl)piperidin-1-yl]carbonyl}pyridine], 2800 nM.
Turning to `Cc1cccc(C2CCCN(C(=O)c3ccnc(N(C)C)c3)C2)c1` (stereo not drawn) [Example 13, N,N-Dimethyl-4-{[3-(3-methylphenyl)piperidin-1-yl]carbonyl}pyridin-2-amine], the IC50 turned out to be 1920 nM.
For `Cc1ccccc1C1CCCN(C(=O)c2ccnc(N(C)C)c2)C1` (stereo not drawn) [Example 14, N,N-Dimethyl-4-{[3-(2-methylphenyl)piperidin-1-yl]carbonyl}pyridin-2-amine], the IC50 turned out to be 190 nM.
The same measure for `CN(C)c1cc(C(=O)N2CCCC(c3ccccc3)C2)ccn1` (stereo not drawn) [Example 15, N,N-Dimethyl-4-[(3-phenylpiperidin-1-yl)carbonyl]pyridin-2-amine]: 1140 nM; for `CN(C)c1cc(C(=O)N2CCCC(c3ccc(Cl)cc3)C2)ccn1` (stereo not drawn) [Example 16, 4-{[3-(4-Chlorophenyl)piperidin-1-yl]carbonyl}-N,N-dimethylpyridin-2-amine]: 270 nM.
The same measure for `CN(C)c1cc(C(=O)N2CCC[C@@H](c3ccc(Cl)cc3)C2)ccn1` [Example 17, 4-{[(3S)-3-(4-Chlorophenyl)piperidin-1-yl]carbonyl}-N,N-dimethylpyridin-2-amine]: 840 nM; for `CN(C)c1cc(C(=O)N2CCC[C@H](c3ccc(Cl)cc3)C2)ccn1` [Example 18, 4-{[(3R)-3-(4-Chlorophenyl)piperidin-1-yl]carbonyl}-N,N-dimethylpyridin-2-amine]: 180 nM; for `CN(C)c1cc(C(=O)N2CCCC(c3ccc(F)cc3)C2)ccn1` (stereo not drawn) [Example 19, 4-{[3-(4-Fluorophenyl)piperidin-1-yl]carbonyl}-N,N-dimethylpyridin-2-amine]: 1220 nM.
On to `CCc1cc(C(=O)N2CCCC(c3ccc(C)cc3)C2)ccn1` (stereo not drawn) [Example 20, 2-Ethyl-4-{[3-(4-methylphenyl)piperidin-1-yl]carbonyl}pyridine], for which the concentration for half-maximal inhibition (IC50) worked out at 1210 nM.
Turning to `Cc1ccc(C2CCCN(C(=O)c3ccnc(N4CCC4)c3)C2)cc1` (stereo not drawn) [Example 21, 2-(Azetidin-1-yl)-4-{[3-(4-methylphenyl)piperidin-1-yl]carbonyl}pyridine], the IC50 turned out to be 1200 nM.
For `O=C(c1ccnc(N2CCC2)c1)N1CCCC(c2ccc(Cl)cc2)C1` (stereo not drawn) [Example 22, 2-(Azetidin-1-yl)-4-{[3-(4-chlorophenyl)piperidin-1-yl]carbonyl}pyridine], the IC50 was found to be 1040 nM.
On to `Cc1ccccc1C1CCCN(C(=O)c2ccnc(N3CCC3)c2)C1` (stereo not drawn) [Example 23, 2-(Azetidin-1-yl)-4-{[3-(2-methylphenyl)piperidin-1-yl]carbonyl}pyridine], for which the IC50 is 960 nM.
Turning to `Cc1cc(Cl)ccc1C1CCCN(C(=O)c2ccnc(N(C)C)c2)C1` (stereo not drawn) [Example 24, 4-{[3-(4-Chloro-2-methylphenyl)piperidin-1-yl]carbonyl}-N,N-dimethylpyridin-2-amine], the half-inhibitory concentration (IC50) is 30 nM.
`CN(C)c1cc(C(=O)N2CCCC(c3ccc(Cl)cc3F)C2)ccn1` (stereo not drawn) [Example 25, 4-{[3-(4-Chloro-2-fluorophenyl)piperidin-1-yl]carbonyl}-N,N-dimethylpyridin-2-amine]: the IC50 was found to be 530 nM.
In the case of `CN(C)c1cc(C(=O)N2CCCC(c3ccc(F)cc3Cl)C2)ccn1` (stereo not drawn) [Example 26, 4-{[3-(2-Chloro-4-fluorophenyl)piperidin-1-yl]carbonyl}-N,N-dimethylpyridin-2-amine], the IC50 worked out at 470 nM.
As to `CNc1cc(C(=O)N2CCCC(c3ccc(Cl)cc3)C2)ccn1` (stereo not drawn) [Example 27, 4-{[3-(4-Chlorophenyl)piperidin-1-yl]carbonyl}-N-methylpyridin-2-amine], the IC50 was 130 nM.
Take `Cc1cc(C(=O)N2CCCC(c3ccc(Cl)cc3)C2)cc(C)n1` (stereo not drawn) [Example 28, 4-{[3-(4-Chlorophenyl)piperidin-1-yl]carbonyl}-2,6-dimethylpyridine]: the half-maximal inhibitory concentration (IC50) stood at 1330 nM.
Turning to `O=C(c1ccnc(Cl)c1)N1CCCC(c2ccc(Cl)cc2)C1` (stereo not drawn) [Example 29, 2-Chloro-4-{[3-(4-chlorophenyl)piperidin-1-yl]carbonyl}pyridine], the 50% inhibitory concentration (IC50) was determined as 3290 nM.
For the compound `CC(C)c1cc(C(=O)N2CCCC(c3ccc(Cl)cc3)C2)ccn1` (stereo not drawn) [Example 30, 4-{[3-(4-Chlorophenyl)piperidin-1-yl]carbonyl}-2-(propan-2-yl)pyridine], the IC50 was 830 nM.
The same measure for `CNc1cc(C(=O)N2CCCC(c3ccc(Cl)cc3C)C2)ccn1` (stereo not drawn) [Example 31, 4-{[3-(4-Chloro-2-methylphenyl)piperidin-1-yl]carbonyl}-N-methylpyridin-2-amine]: 30 nM; for `COc1cc(C(=O)N2CCCC(c3ccc(Cl)cc3C)C2)ccn1` (stereo not drawn) [Example 32, 4-{[3-(4-Chloro-2-methylphenyl)piperidin-1-yl]carbonyl}-2-methoxypyridine]: 490 nM.
With `Cc1cc(Cl)ccc1C1CCCN(C(=O)c2ccnc(N3CCC3)c2)C1` (stereo not drawn) [Example 33, 2-(Azetidin-1-yl)-4-{[3-(4-chloro-2-methylphenyl)piperidin-1-yl]carbonyl}pyridine], the IC50 amounted to 90 nM.
Consider `COc1cc(C(=O)N2CCCC(c3ccc(C)cc3)C2)ccn1` (stereo not drawn) [Example 34, 2-Methoxy-4-{[3-(4-methylphenyl)piperidin-1-yl]carbonyl}pyridine], for which the concentration for half-maximal inhibition (IC50) stood at 5270 nM.
